The assay addresses Acetylcholinesterase (Electrophorus electricus, UniProt O42275). As to the kind of experiment: AChE Inhibition Assay. As to conditions: pH 8; 25 °C. The protocol:
Inhibitory activities of synthesized α-oxycarbanilinophosphonates were determined at 25°C by the colorimetric method of Ellman et al. [Ellman et al., Biochem. Pharmacol., 7:88-95]. The assay solution contained 0.1 M phosphate buffer, pH 8, 0.3 mM 5,5'-dithiobis(2-nitrobenzoic acid) (DTNB), 0.125 units of AChE (Sigma Chemical Co. from electric eel (Electrophorous electricus)), and 0.2 mM acetylthiocholine iodide as the substrate in a total volume of 2.5 mL. In order to provide sufficient time for interaction with either PAS and/or active site of the enzyme, particularly in competition with the substrate, the synthesized compounds were added to the assay solution and preincubated with the enzyme for 10 min at 25°C. In order to solubilize the synthesized compounds, the reaction mixture contained 2% ethanol (50 μL in 2.5 mL reaction mixture volume). Control experiments were run and it was seen that no inhibitory effect was exerted on the enzyme by ethanol. The changes in abs

Sequence of Acetylcholinesterase (O42275 whole entry): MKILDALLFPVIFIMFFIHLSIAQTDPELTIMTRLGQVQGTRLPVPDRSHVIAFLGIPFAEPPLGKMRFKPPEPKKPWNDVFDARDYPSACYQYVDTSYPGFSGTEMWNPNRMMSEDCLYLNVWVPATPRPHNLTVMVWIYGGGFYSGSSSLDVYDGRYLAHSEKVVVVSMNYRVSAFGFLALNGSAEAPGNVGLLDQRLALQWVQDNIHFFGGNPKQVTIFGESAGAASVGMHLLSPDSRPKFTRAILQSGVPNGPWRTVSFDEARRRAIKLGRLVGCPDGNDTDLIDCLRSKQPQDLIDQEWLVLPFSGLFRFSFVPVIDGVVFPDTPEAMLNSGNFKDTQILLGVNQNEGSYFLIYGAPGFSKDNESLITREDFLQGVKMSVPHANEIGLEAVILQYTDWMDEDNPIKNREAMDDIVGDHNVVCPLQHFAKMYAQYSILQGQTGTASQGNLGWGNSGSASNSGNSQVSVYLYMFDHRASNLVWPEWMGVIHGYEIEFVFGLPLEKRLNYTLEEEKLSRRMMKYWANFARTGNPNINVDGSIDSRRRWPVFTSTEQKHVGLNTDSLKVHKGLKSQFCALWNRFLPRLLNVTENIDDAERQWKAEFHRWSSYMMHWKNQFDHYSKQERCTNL

`CCOP(=O)(OCC)C(OC(=O)Nc1ccc(C)c(Cl)c1)c1ccc(Cl)cc1Cl` (stereo not given) [Diethyl[(3-chloro-4-methylanilinocarbonyl)oxy](2,4-dichlorophenyl)methyl phosphonate (4h)]: half-maximal inhibition (IC50) required 6.36 µM.
Then `CCOP(=O)(OCC)C(OC(=O)Nc1ccccc1)c1ccc(SC)cc1` (stereo not drawn) [α-Oxycarbanilinophosphonate, 4d], with 161 µM; and `CCOP(=O)(OCC)C(/C=C/c1ccccc1[N+](=O)[O-])OC(=O)Nc1ccccc1` (stereo not drawn) [α-Oxycarbanilinophosphonate, 4f], with 10.3 µM; and `CCOP(=O)(OCC)C(OC(=O)Nc1ccc(C)c(Cl)c1)c1ccc([N+](=O)[O-])cc1` (stereo not drawn) [α-Oxycarbanilinophosphonate, 4i], with 7.47 µM.
The figure for `CCOP(=O)(OCC)C(OC(=O)NCc1ccccc1)c1cccc2ccccc12` (stereo not drawn) [α-Oxycarbanilinophosphonate, 4l] is 418 µM.

For the origin of these results see BindingDB's records for doi:10.3109/14756366.2012.663362 (Institute for Advanced Studies in Basic Sciences (IASBS), 2013).
